For one assay, the target named is T1, PDE3 (Homo sapiens, UniProt Q14432).
T1 construct: investigated in homogenates of human blood platelets; from tissue; host or cells: human blood platelets (homogenate)
As to the kind of experiment: Inhibition of PDE isoenzymes: PDE3 (cGMP-inhibited), homogenates of human blood platelets. The class given is biochemical. Conditions: 0.5 μM cAMP or cGMP, pH 7.4, 37° C., 15 min, read-out: -log IC50 PDE3 (converted).

The target of the next assay is PDE4. As to the kind of experiment: Inhibition of PDE isoenzymes: PDE4 (cAMP-specific), cytosol of human polymorphonuclear leukocytes, cAMP as substrate. It counts as biochemical. Particulars: cytosol of human PMNL; 0.5 μM cAMP; motapizone (1 μM) to suppress PDE3; pH 7.4, 37° C., 15 min.

T1 sequence (Q14432 whole entry): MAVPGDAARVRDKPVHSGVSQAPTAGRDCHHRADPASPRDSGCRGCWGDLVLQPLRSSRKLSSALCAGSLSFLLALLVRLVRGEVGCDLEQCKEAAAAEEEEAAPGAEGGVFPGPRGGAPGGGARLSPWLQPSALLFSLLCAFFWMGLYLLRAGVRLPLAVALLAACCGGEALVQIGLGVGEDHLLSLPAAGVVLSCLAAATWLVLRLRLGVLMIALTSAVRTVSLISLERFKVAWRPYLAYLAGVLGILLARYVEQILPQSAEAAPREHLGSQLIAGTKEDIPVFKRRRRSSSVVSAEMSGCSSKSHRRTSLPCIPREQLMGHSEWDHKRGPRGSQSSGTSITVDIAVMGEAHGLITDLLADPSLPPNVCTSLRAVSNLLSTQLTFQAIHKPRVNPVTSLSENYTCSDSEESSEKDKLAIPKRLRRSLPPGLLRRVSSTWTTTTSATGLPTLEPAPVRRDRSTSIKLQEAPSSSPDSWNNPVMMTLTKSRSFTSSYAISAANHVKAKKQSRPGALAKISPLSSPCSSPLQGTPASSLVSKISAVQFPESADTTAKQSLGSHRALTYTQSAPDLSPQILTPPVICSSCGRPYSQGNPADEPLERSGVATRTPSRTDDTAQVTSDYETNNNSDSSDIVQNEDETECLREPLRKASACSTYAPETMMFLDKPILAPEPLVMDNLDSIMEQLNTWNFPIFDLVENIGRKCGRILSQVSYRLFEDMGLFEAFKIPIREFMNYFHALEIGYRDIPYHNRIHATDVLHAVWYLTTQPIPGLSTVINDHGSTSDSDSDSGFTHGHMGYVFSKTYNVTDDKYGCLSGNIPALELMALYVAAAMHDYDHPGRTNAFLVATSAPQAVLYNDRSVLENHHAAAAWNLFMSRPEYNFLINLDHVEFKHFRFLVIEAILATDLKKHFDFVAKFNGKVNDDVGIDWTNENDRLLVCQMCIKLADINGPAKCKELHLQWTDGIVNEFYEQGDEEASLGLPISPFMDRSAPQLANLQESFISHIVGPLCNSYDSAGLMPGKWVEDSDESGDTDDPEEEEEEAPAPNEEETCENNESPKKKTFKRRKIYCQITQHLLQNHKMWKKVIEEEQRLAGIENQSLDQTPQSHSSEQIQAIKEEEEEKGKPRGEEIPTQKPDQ

Turning to `COc1ccc(C2=NN(c3ccc(C(=O)Nc4ccc(C5=NNC(=O)CC5C)cc4)cc3)C(=O)[C@H]3CC=CC[C@@H]23)cc1OC` (relative stereo) [Compound 4, (cis)-N-{4-(4-Methyl-6-oxo-1,4,5,6-tetrahydro-pyridazin-3-yl)phenyl}-4-{4-(3,4-dimethoxyphenyl)-1-oxo-4a,5,8,8a-tetrahydro-1H-phthalazin-2-yl}benzamide], on PDE3, the IC50 (commonly the concentration at which inhibition is half-maximal) is 891 nM. The “-log IC50 PDE4” value on PDE4 was 8.48 mol/l.

Turning to `COc1ccc(C2=NN(c3ccc(C4=NNC(=O)CC4C)cc3)C(=O)[C@H]3CC=CC[C@@H]23)cc1Cl` (relative stereo) [Compound 12, (cis)-4-(3-chloro-4-methoxyphenyl)-2-{4-(4-methyl-6-oxo-1,4,5,6-tetrahydropyridazin-3-yl)phenyl}-4a,5,8,8a-tetrahydro-2H-phthalazin-1-one], the 50% inhibitory concentration (IC50) on PDE3 is 81.3 nM. Also, at PDE4, the “-log IC50 PDE4” value was 7.00 mol/l.

Take `CCOc1ccc(C2=NN(c3ccc(C4=NNC(=O)CC4C)cc3)C(=O)[C@H]3CC=CC[C@@H]23)cc1OCC` (relative stereo) [Compound 14, (cis)-4-(3,4-diethoxyphenyl)-2-{4-(4-methyl-6-oxo-1,4,5,6-tetrahydropyridazin-3-yl)phenyl}-4a,5,8,8a-tetrahydro-2H-phthalazin-1-one]: at PDE3, the 50% inhibitory concentration (IC50) was 275 nM. Also, the “-log IC50 PDE4” value on PDE4 turned out to be 8.05 mol/l.

With `COc1ccc(C2=NN(c3ccc(C4=NNC(=O)CC4C)cc3)C(=O)[C@H]3CC=CC[C@@H]23)cc1OC` (relative stereo) [Compound 2, (cis)-4-(3,4-Dimethoxyphenyl)-2-{4-(4-methyl-6-oxo-1,4,5,6-tetrahydropyridazin-3-yl)phenyl}-4a,5,8,8a-tetrahydro-2H-phthalazin-1-one], the IC50 on PDE3 was 204 nM. Also, the “-log IC50 PDE4” value at PDE4 is 8.36 mol/l.

`COc1ccc(C2=NN(c3ccc(C(=O)Nc4ccc(-c5ccc(=O)[nH]n5)cc4)cc3)C(=O)[C@H]3CC=CC[C@@H]23)cc1OC` (relative stereo) [Compound 9, (cis)-N-{4-(6-Oxo-1,6-dihydro-pyridazin-3-yl)phenyl}-4-(4-{3,4-dimethoxyphenyl}-1-oxo-4a,5,8,8a-tetrahydro-1H-phthalazin-2-yl)benzamide]: the IC50 at PDE3 is 4900 nM. Also, the “-log IC50 PDE4” value at PDE4 turned out to be 9.08 mol/l.

On to `COc1ccc(C2=NN(C(C)CCC(=O)Nc3ccc(C4=NNC(=O)CC4C)cc3)C(=O)[C@H]3CC=CC[C@@H]23)cc1OC` (relative stereo) [Compound 8, (cis)-N-{4-(4-Methyl-6-oxo-1,4,5,6-tetrahydro-pyridazin-3-yl)phenyl}-4-{4-(3,4-dimethoxyphenyl)-1-oxo-4a,5,8,8a-tetrahydro-1H-phthalazin-2-yl}valeramide], for which, on PDE3, the IC50 is 100 nM. Besides, on PDE4, the “-log IC50 PDE4” value amounted to 8.17 mol/l.

Consider `CCOc1ccc(C2=NN(CCCCOc3ccc(C4=NNC(=O)CC4C)cc3)C(=O)[C@H]3CC=CC[C@@H]23)cc1OCC` (relative stereo) [Compound 15, (cis)-6-(4-[4-{4-(3,4-diethoxyphenyl)-1-oxo-4a,5,8,8a-tetrahydro-2H-phthalazin-2-yl}-1-butyloxy)phenyl]-4,5-dihydro-5-methyl-2H-pyridazin-3-one], for which the half-inhibitory concentration (IC50) at PDE3 is 209 nM. Further, at PDE4, the “-log IC50 PDE4” value is 8.60 mol/l.

Turning to `COc1ccc(C2=NN(CCCCOc3ccc(C4=NNC(=O)CC4C)cc3)C(=O)[C@H]3CC=CC[C@@H]23)cc1Cl` (relative stereo) [Compound 13, (cis)-6-(4-[4-{4-(3-Chloro-4-methoxyphenyl)-1-oxo-4a,5,8,8a-tetrahydro-2H-phthalazin-2-yl}-1-butyloxy)phenyl]-4,5-dihydro-5-methyl-2H-pyridazin-3-one], on PDE3, the IC50 was 35.5 nM. At PDE4, the “-log IC50 PDE4” value came to 7.77 mol/l.

In the case of `COc1ccc(C2=NN(CC(=O)Nc3ccc(-c4ccc(=O)[nH]n4)cc3)C(=O)[C@@H]3CC=CC[C@H]23)cc1OC` (relative stereo) [Compound 5], at PDE3, the IC50 is 1260 nM. The “-log IC50 PDE4” value on PDE4 is 8.10 mol/l.

For the compound `COc1ccc(C2=NN(c3ccc(C4=NNC(=O)CC4C)cc3)C(=O)[C@@H]3CC=CC[C@H]23)cc1OC` (stereo partly drawn) [Compound 16, (4aS,8aR)-4-[4-{4-(3,4-dimethoxyphenyl)-1-oxo-4a,5,8,8a-tetrahydro-2H-phthalazin-2-yl}phenyl]-5,6-dihydro-5-methylpyridazin-1-one], the IC50 at PDE3 is 437 nM. On PDE4, the “-log IC50 PDE4” value came out at 8.64 mol/l.

As for `COc1ccc(C2=NN(CCCCC(=O)Nc3ccc(-c4ccc(=O)[nH]n4)cc3)C(=O)[C@@H]3CC=CC[C@H]23)cc1OC` (relative stereo) [Compound 6], the half-inhibitory concentration (IC50) on PDE3 is 832 nM. In addition, the “-log IC50 PDE4” value on PDE4 stood at 8.17 mol/l.

Regarding `COc1ccc(C2=NN(CC(=O)Nc3ccc(C4=NNC(=O)CC4C)cc3)C(=O)[C@H]3CC=CC[C@@H]23)cc1OC` (relative stereo) [Compound 7, (cis)-N-{4-(4-Methyl-6-oxo-1,4,5,6-tetrahydro-pyridazin-3-yl)phenyl}-2-{4-(3,4-dimethoxy-phenyl)-1-oxo-4a,5,8,8a-tetrahydro-1H-phthalazin-2-yl}acetamide], the IC50 on PDE3 was 182 nM. Also, the “-log IC50 PDE4” value on PDE4 is listed as 8.40 mol/l.

The values above are taken from US6255303A, “Phthalazinone PDE III/IV inhibitors” (Byk Gulden Lomberg Chemische Fabrik GmbH, priority 1998, dated 2001).
